Read-outs that look alike come from different tables or passages of the source.
Columns and labels:
Assay type in all cases: biochemical
kinases [1] = molecular target: kinases (Homo sapiens, UniProt Q9UQM7); conditions: CAMK2A FRET-Z-Lyte SP; Test Conc(μM):ATP Conc(μM) 1:10
kinases [2] = molecular target: kinases (Homo sapiens, UniProt Q99755); conditions: PIP5K1A FRET-Adapta SP; Test Conc(μM):ATP Conc(μM) 1:10
kinases [3] = molecular target: kinases (Homo sapiens, UniProt Q9H792); conditions: PEAK1 FRET-Z-Lyte SP; Test Conc(μM):ATP Conc(μM) 1:50
kinases [4] = molecular target: kinases (Homo sapiens, UniProt P04629); conditions: NTRK1 (TRKA) FRET-Z-Lyte SP; Test Conc(μM):ATP Conc(μM) 1:400
kinases [5] = molecular target: kinases (Homo sapiens, UniProt Q9BZL6); conditions: PRKD2 (PKD2) Z-Lyte SP; Test Conc(μM):ATP Conc(μM) 1:25
kinases [6] = molecular target: kinases (Homo sapiens, UniProt Q96PY6); conditions: NEK1 FRET-Z-Lyte SP; ATP Conc(μM):Test Conc(μM) 1:100
kinases [7] = molecular target: kinases (Homo sapiens, UniProt O00418); conditions: EEF2K FRET-Z-Lyte SP; Test Conc(μM):ATP Conc(μM) 1:10
kinases [8] = molecular target: kinases (Homo sapiens, UniProt Q14680); conditions: MELK FRET-Z-Lyte SP; Test Conc(μM):ATP Conc(μM) 1:25
kinases [9] = molecular target: kinases (Homo sapiens, UniProt O75676); conditions: RPS6KA4 (MSK2) FRET-Z-Lyte SP; Test Conc(μM):ATP Conc(μM) 1:10
kinases [10] = molecular target: kinases (Homo sapiens, UniProt Q9H0K1); conditions: SNF1LK2 FRET-Z-Lyte SP; Test Conc(μM):ATP Conc(μM) 1:50
kinases [11] = molecular target: kinases (Homo sapiens, UniProt Q16566); conditions: CAMK4 (CaMKIV) FRET-Z-Lyte SP; Test Conc(μM):ATP Conc(μM) 1:25
kinases [12] = molecular target: kinases (Homo sapiens, UniProt P30291); conditions: WEE1 FRET-Lantha SP; Test Conc(μM) 1
kinases [13] = molecular target: kinases (Homo sapiens, UniProt P36897); conditions: TGFBR1 (ALK5) FRET-Lantha SP; Test Conc(μM) 1
kinases [14] = molecular target: kinases (Homo sapiens, UniProt P08581); conditions: MET (cMet) FRET-Z-Lyte SP; Test Conc(μM):ATP Conc(μM) 1:50
kinases [15] = molecular target: kinases (Homo sapiens, UniProt O75116); conditions: ROCK2 FRET-Z-Lyte SP; Test Conc(μM):ATP Conc(μM) 1:50
kinases [16] = molecular target: kinases (Homo sapiens, UniProt P42356); conditions: PI4KA FRET-Adapta SP; Test Conc(μM):ATP Conc(μM) 1:10
kinases [17] = molecular target: kinases (Homo sapiens, UniProt P37173); conditions: TGFBR2 FRET-Lantha SP; Test Conc(μM) 1
kinases [18] = molecular target: kinases (Homo sapiens, UniProt Q16288); conditions: NTRK3 (TRKC) FRET-Z-Lyte SP; Test Conc(μM):ATP Conc(μM) 1:50
kinases [19] = molecular target: kinases (Homo sapiens, UniProt Q13131)
kinases [20] = molecular target: kinases (Homo sapiens, UniProt Q9NYY3); conditions: PLK2 FRET-Z-Lyte SP; Test Conc(μM):ATP Conc(μM) 1:25
kinases [21] = molecular target: kinases (Homo sapiens, UniProt Q15759); conditions: MAPK11 (p38 beta) Z-Lyte SP; Test Conc(μM):ATP Conc(μM) 1:50
kinases [22] = molecular target: kinases (Homo sapiens, UniProt P50750)
kinases [23] = molecular target: kinases (Homo sapiens, UniProt P49336); conditions: CDK8/cyclin C FRET-Lantha SP; Test Conc(μM) 1
kinases [24] = molecular target: kinases (Homo sapiens, UniProt P42345); conditions: FRAP1 (mTOR) *Mn* Z-Lyte SP; Test Conc(μM):ATP Conc(μM) 1:10
kinases [25] = molecular target: kinases (Homo sapiens, UniProt Q8NI60); conditions: ADCK3 FRET-Lantha SP; Test Conc(μM) 1
kinases [26] = molecular target: kinases (Homo sapiens, UniProt P00533); conditions: EGFR (ErbB1) *Mn* Z-Lyte SP; Test Conc(μM):ATP Conc(μM) 1:10
kinases [27] = molecular target: kinases (Homo sapiens, UniProt P24941)
[28] = AMPK (A1/B1/G2) FRET-Lantha SP, Test Conc(μM) 1
[29] = AMPK (A1/B1/G3) FRET-Lantha SP, Test Conc(μM) 1
[30] = AMPK (A1/B2/G1) FRET-Lantha SP, Test Conc(μM) 1
[31] = AMPK A1/B1/G1 FRET-Z-lyte SP, Test Conc(μM):ATP Conc(μM) 1:50
[32] = AMPK A1/B2/G2 FRET-Z-Lyte SP, Test Conc(μM):ATP Conc(μM) 1:10
[33] = AMPK A1/B2/G3 FRET-Z-Lyte SP, Test Conc(μM):ATP Conc(μM) 1:10
[34] = CDK9 (Inactive) FRET-Lantha SP, Test Conc(μM) 1
[35] = CDK9/cyclin K FRET-Lantha SP, Test Conc(μM) 1
[36] = CDK9/cyclin T1 FRET-Adapta SP, Test Conc(μM):ATP Conc(μM) 1:25
[37] = CDK2/Cyclin E1 FRET-Lantha SP, Test Conc(μM) 1
[38] = CDK2/Cyclin O FRET-Lantha SP, Test Conc(μM) 1
[39] = CDK2/cyclin A1 FRET-Lantha SP, Test Conc(μM) 1
[40] = CDK2/cyclin A FRET-Z-Lyte SP, Test Conc(μM):ATP Conc(μM) 1:25

kinases (Homo sapiens, UniProt P50750), sequence (P50750 whole entry): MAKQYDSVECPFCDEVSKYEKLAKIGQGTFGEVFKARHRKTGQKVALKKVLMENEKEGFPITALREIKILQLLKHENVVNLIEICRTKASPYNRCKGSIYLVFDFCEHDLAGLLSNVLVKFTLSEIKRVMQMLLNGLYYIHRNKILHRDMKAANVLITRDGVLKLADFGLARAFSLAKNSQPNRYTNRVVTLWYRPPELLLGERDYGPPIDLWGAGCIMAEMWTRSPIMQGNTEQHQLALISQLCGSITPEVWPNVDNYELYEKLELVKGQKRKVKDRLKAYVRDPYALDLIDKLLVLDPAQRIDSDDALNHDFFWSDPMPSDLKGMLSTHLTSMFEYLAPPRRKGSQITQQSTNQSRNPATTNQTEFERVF
kinases (Homo sapiens, UniProt Q13131), sequence (Q13131 whole entry): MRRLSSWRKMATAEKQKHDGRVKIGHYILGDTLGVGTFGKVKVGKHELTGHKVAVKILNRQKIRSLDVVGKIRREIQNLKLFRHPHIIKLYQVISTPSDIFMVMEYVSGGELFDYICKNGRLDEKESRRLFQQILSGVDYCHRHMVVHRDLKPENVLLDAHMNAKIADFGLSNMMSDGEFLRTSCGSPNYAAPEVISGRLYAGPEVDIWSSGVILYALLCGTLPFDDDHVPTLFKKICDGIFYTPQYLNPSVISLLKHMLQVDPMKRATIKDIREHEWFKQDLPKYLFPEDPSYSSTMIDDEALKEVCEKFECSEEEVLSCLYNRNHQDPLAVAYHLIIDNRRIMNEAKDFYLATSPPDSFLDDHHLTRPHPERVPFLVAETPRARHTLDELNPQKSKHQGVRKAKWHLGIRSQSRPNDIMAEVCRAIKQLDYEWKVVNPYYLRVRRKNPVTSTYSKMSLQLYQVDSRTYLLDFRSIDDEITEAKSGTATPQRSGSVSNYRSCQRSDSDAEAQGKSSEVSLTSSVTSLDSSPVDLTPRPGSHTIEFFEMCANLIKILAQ
kinases (Homo sapiens, UniProt Q15759), sequence (Q15759 whole entry): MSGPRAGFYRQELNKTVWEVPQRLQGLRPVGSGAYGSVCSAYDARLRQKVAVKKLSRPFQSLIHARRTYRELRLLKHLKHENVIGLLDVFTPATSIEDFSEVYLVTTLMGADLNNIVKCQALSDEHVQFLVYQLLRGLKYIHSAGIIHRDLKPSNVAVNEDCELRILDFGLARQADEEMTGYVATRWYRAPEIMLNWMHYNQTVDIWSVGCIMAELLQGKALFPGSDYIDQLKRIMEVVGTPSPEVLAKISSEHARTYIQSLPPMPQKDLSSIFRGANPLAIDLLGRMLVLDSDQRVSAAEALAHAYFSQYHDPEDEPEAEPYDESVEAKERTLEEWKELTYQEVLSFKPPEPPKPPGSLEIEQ
kinases (Homo sapiens, UniProt O75676), sequence (O75676 whole entry): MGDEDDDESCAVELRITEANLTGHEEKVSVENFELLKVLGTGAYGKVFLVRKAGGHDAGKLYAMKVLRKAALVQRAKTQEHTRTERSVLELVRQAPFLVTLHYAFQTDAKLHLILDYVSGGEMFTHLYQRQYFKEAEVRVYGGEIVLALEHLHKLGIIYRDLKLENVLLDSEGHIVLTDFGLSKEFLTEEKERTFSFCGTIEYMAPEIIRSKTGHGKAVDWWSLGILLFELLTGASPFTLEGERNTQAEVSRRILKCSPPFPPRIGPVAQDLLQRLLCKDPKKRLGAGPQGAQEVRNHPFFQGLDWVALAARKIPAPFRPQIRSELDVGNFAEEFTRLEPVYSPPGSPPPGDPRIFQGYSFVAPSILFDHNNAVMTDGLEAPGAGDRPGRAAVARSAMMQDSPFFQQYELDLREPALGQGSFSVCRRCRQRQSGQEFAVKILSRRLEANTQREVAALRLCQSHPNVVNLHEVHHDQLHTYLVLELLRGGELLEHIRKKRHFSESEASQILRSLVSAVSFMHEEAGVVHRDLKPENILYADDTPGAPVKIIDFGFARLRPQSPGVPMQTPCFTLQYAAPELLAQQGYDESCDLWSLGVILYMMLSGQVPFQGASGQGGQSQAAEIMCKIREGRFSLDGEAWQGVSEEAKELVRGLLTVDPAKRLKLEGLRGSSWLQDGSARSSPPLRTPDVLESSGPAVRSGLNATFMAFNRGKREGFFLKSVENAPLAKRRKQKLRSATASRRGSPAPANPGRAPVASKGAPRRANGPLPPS
kinases (Homo sapiens, UniProt P04629), sequence (P04629 33-796): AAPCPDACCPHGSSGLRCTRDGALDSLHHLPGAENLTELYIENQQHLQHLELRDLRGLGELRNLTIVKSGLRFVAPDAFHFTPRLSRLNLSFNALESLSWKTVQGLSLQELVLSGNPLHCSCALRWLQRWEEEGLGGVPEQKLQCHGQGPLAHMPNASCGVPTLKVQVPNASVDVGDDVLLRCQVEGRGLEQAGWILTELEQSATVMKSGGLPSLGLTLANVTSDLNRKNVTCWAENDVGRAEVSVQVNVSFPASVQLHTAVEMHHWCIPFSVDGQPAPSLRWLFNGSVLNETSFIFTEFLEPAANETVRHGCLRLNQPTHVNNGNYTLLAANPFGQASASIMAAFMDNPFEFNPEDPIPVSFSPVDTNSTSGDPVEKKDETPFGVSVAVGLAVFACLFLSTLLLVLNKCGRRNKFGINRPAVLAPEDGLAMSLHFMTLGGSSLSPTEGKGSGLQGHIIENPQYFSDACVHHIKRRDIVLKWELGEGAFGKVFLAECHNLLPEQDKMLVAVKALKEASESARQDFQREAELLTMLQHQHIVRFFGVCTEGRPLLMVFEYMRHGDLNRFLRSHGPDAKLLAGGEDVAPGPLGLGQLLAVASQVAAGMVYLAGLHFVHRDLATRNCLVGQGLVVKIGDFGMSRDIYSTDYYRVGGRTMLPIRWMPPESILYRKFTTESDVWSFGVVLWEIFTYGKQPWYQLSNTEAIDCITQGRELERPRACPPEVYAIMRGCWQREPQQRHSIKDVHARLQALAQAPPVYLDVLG
kinases (Homo sapiens, UniProt Q16566), sequence (Q16566 whole entry): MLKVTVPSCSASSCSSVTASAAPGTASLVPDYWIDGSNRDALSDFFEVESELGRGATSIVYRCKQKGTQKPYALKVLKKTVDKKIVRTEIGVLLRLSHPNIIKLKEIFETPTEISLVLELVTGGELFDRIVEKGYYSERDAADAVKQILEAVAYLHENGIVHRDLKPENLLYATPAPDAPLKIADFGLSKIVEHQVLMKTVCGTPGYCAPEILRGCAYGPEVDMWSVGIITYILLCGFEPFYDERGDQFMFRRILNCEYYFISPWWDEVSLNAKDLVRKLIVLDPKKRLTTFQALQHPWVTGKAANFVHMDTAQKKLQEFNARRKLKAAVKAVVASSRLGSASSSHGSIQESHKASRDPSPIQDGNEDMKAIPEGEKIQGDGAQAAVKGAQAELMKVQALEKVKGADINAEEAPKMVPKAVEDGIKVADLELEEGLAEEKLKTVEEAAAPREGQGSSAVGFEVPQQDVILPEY
kinases (Homo sapiens, UniProt Q9BZL6), sequence (Q9BZL6 whole entry): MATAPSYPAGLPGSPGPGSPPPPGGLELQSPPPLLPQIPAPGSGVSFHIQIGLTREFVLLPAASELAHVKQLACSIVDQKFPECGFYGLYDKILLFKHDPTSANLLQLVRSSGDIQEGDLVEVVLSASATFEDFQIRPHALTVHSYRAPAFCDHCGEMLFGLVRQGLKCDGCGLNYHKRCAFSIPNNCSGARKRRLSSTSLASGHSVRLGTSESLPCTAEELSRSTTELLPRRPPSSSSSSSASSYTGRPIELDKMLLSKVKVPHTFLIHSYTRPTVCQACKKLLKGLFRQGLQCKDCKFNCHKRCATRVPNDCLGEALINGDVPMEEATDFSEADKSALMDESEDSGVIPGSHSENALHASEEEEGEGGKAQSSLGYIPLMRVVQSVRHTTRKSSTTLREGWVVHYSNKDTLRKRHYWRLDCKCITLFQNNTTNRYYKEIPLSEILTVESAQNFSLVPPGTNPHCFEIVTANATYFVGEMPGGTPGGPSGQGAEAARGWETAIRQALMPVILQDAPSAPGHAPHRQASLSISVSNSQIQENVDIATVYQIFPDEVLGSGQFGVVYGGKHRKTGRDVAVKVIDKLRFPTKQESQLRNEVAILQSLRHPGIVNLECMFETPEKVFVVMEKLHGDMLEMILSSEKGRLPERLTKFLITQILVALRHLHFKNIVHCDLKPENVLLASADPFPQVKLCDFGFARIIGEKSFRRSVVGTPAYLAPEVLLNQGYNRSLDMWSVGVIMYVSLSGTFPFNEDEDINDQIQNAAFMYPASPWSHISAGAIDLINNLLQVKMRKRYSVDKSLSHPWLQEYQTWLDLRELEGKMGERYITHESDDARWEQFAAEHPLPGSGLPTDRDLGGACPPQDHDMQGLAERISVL
kinases (Homo sapiens, UniProt O00418), sequence (O00418 whole entry): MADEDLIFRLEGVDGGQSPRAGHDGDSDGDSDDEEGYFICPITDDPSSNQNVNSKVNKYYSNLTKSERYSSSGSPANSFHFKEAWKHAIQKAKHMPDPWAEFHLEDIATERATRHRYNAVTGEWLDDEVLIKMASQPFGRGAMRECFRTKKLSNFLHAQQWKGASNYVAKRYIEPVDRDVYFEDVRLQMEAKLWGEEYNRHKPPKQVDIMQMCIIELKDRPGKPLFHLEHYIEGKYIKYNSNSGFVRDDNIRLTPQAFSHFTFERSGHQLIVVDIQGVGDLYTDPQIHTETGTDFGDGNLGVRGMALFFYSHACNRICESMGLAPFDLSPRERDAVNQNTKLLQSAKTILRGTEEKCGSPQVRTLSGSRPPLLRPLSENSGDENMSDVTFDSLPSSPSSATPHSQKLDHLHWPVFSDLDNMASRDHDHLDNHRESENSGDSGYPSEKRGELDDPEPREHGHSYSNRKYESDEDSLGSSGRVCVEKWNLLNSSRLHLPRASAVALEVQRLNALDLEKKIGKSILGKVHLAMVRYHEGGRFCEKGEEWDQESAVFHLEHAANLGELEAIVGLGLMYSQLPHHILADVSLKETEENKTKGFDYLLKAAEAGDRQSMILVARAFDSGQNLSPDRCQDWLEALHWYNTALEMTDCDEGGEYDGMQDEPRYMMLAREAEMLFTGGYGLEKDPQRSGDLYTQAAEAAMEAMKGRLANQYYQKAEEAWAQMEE

| SMILES | Mean Inhib (%) (kinases [1]) | Mean Inhib (%) (kinases [2]) | Mean Inhib (%) (kinases [3]) | Mean Inhib (%) (kinases [4]) | Mean Inhib (%) (kinases [5]) | Mean Inhib (%) (kinases [6]) | Mean Inhib (%) (kinases [7]) | Mean Inhib (%) (kinases [8]) | Mean Inhib (%) (kinases [9]) | Mean Inhib (%) (kinases [10]) | Mean Inhib (%) (kinases [11]) | Mean Inhib (%) (kinases [12]) | Mean Inhib (%) (kinases [13]) | Mean Inhib (%) (kinases [14]) | Mean Inhib (%) (kinases [15]) | Mean Inhib (%) (kinases [16]) | Mean Inhib (%) (kinases [17]) | Mean Inhib (%) (kinases [18]) | Mean Inhib (%) (kinases [19]; [28]) | Mean Inhib (%) (kinases [19]; [29]) | also measured |
| --- | --- | --- | --- | --- | --- | --- | --- | --- | --- | --- | --- | --- | --- | --- | --- | --- | --- | --- | --- | --- | --- |
| Cc1ccc(NC(=O)c2ccnc(N3CCOCC3)c2)cc1Nc1ccnc(N2CC(C)OC(C)C2)n1 (centres unmarked) [compound 3] | 1.0 | −2.9 | 0.8 | 30.7 | 1.5 | 7.0 | 5.5 | 3.6 | −0.8 | 15.9 | −5.4 | 4.6 | 5.3 | 0.4 | −2.1 | 4.3 | −3.5 | 3.5 | 5.6 | −10.3 | Mean Inhib (%) (kinases [19]; [30]): 0.0%; Mean Inhib (%) (kinases [19]; [31]): 0.3%; Mean Inhib (%) (kinases [19]; [32]): 12.2%; Mean Inhib (%) (kinases [19]; [33]): 20.8%; Mean Inhib (%) (kinases [20]): 1.8%; Mean Inhib (%) (kinases [21]): 47.6%; Mean Inhib (%) (kinases [22]; [34]): 6.2%; Mean Inhib (%) (kinases [22]; [35]): −1.9%; Mean Inhib (%) (kinases [22]; [36]): 17.2%; Mean Inhib (%) (kinases [23]): 8.6%; Mean Inhib (%) (kinases [24]): 0.7%; Mean Inhib (%) (kinases [25]): −1.6%; Mean Inhib (%) (kinases [26]): 1.5%; Mean Inhib (%) (kinases [27]; [37]): 13.8%; Mean Inhib (%) (kinases [27]; [38]): 2.7%; Mean Inhib (%) (kinases [27]; [39]): −1.8%; Mean Inhib (%) (kinases [27]; [40]): 6.2% |
| Cc1cc(Oc2ccnc(Nc3ccc(S(N)(=O)=O)cc3)c2)c(-c2ccccn2)nc1C [compound 65] | −3.3 | 2.4 | 55.2 | 20.1 | 21.2 | 0.2 | 3.7 | 6.0 | 5.3 | 10.7 | −1.8 | 1.2 | 99.6 | 2.5 | 1.6 | −6.0 | 67.0 | 2.7 | 1.3 | −1.2 | Mean Inhib (%) (kinases [19]; [30]): 2.3%; Mean Inhib (%) (kinases [19]; [31]): −0.6%; Mean Inhib (%) (kinases [19]; [32]): −0.5%; Mean Inhib (%) (kinases [19]; [33]): −2.4%; Mean Inhib (%) (kinases [20]): 14.0%; Mean Inhib (%) (kinases [21]): 21.2%; Mean Inhib (%) (kinases [22]; [34]): 6.9%; Mean Inhib (%) (kinases [22]; [35]): 2.6%; Mean Inhib (%) (kinases [22]; [36]): 6.2%; Mean Inhib (%) (kinases [23]): 5.9%; Mean Inhib (%) (kinases [24]): −8.8%; Mean Inhib (%) (kinases [25]): −3.0%; Mean Inhib (%) (kinases [26]): −1.9%; Mean Inhib (%) (kinases [27]; [37]): 10.6%; Mean Inhib (%) (kinases [27]; [38]): 3.0%; Mean Inhib (%) (kinases [27]; [39]): 4.9%; Mean Inhib (%) (kinases [27]; [40]): 5.0% |
